The test system of one data set is TRa2. Kind of data set: Glycosyl donor selectivity of TRa2. The data set is classed as biochemical, Trichoderma viride. As to conditions: under the conditions shown in the Example section. The text has this:
Moreover, this enzyme is a glycosyltransferase capable of producing not only sugars composed of one or two glucose molecules, but also glycosides whose sugar chain length is three (G3) or more glucose molecules.

A short description of data set [1]: Solubility in water (HPLC quantification of supernatant). It is filed as physicochemical. Particulars: added to water at 10 to 450 mg/ml, vigorous stirring, centrifugation.
Data set [2] can be described thus: Heat stability of glycoside (% remaining, HPLC). The data set is classed as physicochemical. Particulars: 100 μM in 10 mM potassium phosphate buffer pH 7.0, 4° C. to 100° C., 0 to 4 hours. The protocol: After 10 mM potassium phosphate buffer (pH 7.0, 30 μl) containing 100 μM (+)-catechin or 4′-O-α-D-glucopyranosyl-(+)-catechin was treated at different temperatures ranging from 4° C. to 100° C. for 0 to 4 hours, each sample was transferred on ice and mixed with 0.1% TFA (60 μl), followed by HPLC analysis in the same manner as shown in Example 1.

Data on seven compounds can be found in patent publication US8383384B2, “Polypeptide having glycosylation activity on a flavonoid” (Suntory Holdings Limited, priority 2007, dated 2013).

With `O=C[C@H](O)[C@@H](O)[C@H](O[C@@H]1O[C@H](CO)[C@@H](O)[C@H](O)[C@H]1O)[C@H](O)CO` [cellobiose], in the data set on TRa2, the “use as glycosyl donor by TRa2” value was “does not target”. For the compound `OC[C@H]1O[C@H](Oc2cc(O)cc3c2C[C@H](O)[C@@H](c2ccc(O)c(O)c2)O3)[C@H](O)[C@@H](O)[C@@H]1O` [5-O-α-D-glucopyranosyl-(+)-catechin], in data set [1], the “solubility in water relative to (+)-catechin” value is “at least 40 fold”. Regarding `Oc1cc(O)c2c(c1)O[C@H](c1ccc(O)c(O)c1)[C@@H](O)C2` [(+)-catechin], the solubility in water result in data set [1] is “substantially insoluble in water”. `OC[C@H]1O[C@@H]2O[C@H]3[C@H](O)[C@@H](O)[C@@H](O[C@H]4[C@H](O)[C@@H](O)[C@@H](O[C@H]5[C@H](O)[C@@H](O)[C@@H](O[C@H]6[C@H](O)[C@@H](O)[C@@H](O[C@H]7[C@H](O)[C@@H](O)[C@@H](O[C@H]1[C@H](O)[C@H]2O)O[C@@H]7CO)O[C@@H]6CO)O[C@@H]5CO)O[C@@H]4CO)O[C@@H]3CO` [α-cyclodextrin]: the “use as glycosyl donor by TRa2” value in the data set on TRa2 was “does not target”.

For `OC[C@H]1O[C@H](O[C@H]2[C@H](O)[C@@H](O)C(O)O[C@@H]2CO)[C@H](O)[C@@H](O)[C@@H]1O` (mixture of isomers) [maltose], the “use as glycosyl donor by TRa2” value in the data set with TRa2 is given as “does not target”. For `OC[C@H]1O[C@@H]2O[C@H]3[C@H](O)[C@@H](O)[C@@H](O[C@H]4[C@H](O)[C@@H](O)[C@@H](O[C@H]5[C@H](O)[C@@H](O)[C@@H](O[C@H]6[C@H](O)[C@@H](O)[C@@H](O[C@H]7[C@H](O)[C@@H](O)[C@@H](O[C@H]8[C@H](O)[C@@H](O)[C@@H](O[C@H]1[C@H](O)[C@H]2O)O[C@@H]8CO)O[C@@H]7CO)O[C@@H]6CO)O[C@@H]5CO)O[C@@H]4CO)O[C@@H]3CO` [β-cyclodextrin], the “use as glycosyl donor by TRa2” value in the data set on TRa2 was “does not target”. Turning to `OC[C@H]1O[C@H](Oc2ccc([C@H]3Oc4cc(O)cc(O)c4C[C@@H]3O)cc2O)[C@H](O)[C@@H](O)[C@@H]1O` [4′-O-α-D-glucopyranosyl-(+)-catechin], in data set [2], the “heat stability (% remaining) compared with catechin” value is “more stable against heat than catechin”.
